Source: patent US11034654B2, “2,3-dihydroisoindole-1-carboxamides useful as ROR-gamma modulators” (AstraZeneca AB, priority 2017, dated 2021)

Tests used:
[1] = biological target: T1, RORγ ligand binding domain (Homo sapiens, UniProt P51449); test: RORγ radioligand competition binding assay (SPA); settings: competition with tritiated 2-(4-(ethylsulfonyl)phenyl)-N-(4-(2-(methoxymethyl)phenyl)thiophen-2-yl)acetamide (25 nM), hRORγ LBD
Procedure, shortened: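 SPA competition on E. coli-expressed N-6×HN-Avi-GST-TCS-hRORγ LBD (S258-K518), 4 nM on YOx glutathione beads, in 20 mM Tris, 150 mM NaCl, 10% glycerol, 0.25% CHAPS, 1 mM TCEP. Compound pre-incubation 1 h RT, then 25 nM tritiated tracer for 16 h. IC50 normalized to vehicle/reference controls; Ki = IC50/(1+[L]/Kd), Kd 17 nmol/L.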

[2] = test system: human TH17 cells; test: Inhibition of IL-17 release from human TH17 cells; assay type: cell-based; settings: 96 h; isolated human TH17 cells cultured 4 days, IL-17A in supernatant by HTRF; read-out: pIC50 IL-17 release (converted)
Text: Inhibition of IL-17 Release from Human TH17 Cells
This test is designed to screen compounds for their inhibitory effect on the release of IL-17 from isolated and cultured human TH17 cells.
Peripheral blood mononuclear cells (PBMC) were isolated from heparin treated human whole blood from healthy donors by density gradient centrifugation. TH17 cells (CD4+CXCR3−CCR6+) were enriched using a human TH17 Cell Enrichment Kit (Stemcell Technologies) according to the manufacturer's protocol. The isolated TH17 cells were activated with aCD3aCD28 beads (MACS Miltenyi) and cultured in X-Vivo15 medium (Lonza) supplemented with L-glutamine, β-mercaptoethanol and a cytokine cocktail consisting of; IL-2, IL-23, IL-1β, IL-6, TGF-β. Cells were seeded at 8000 cells/well in a 384-plate (Corning, #3707) in the presence of compounds or DMSO and cultured for 4 days (37° C., 5% CO2). On day 4 supernatants were collected and IL-17A was measured using a Human IL-17 HTRF Assay kit (Cisbio Bioassays) according to the manufacturer's protocol. The IC50 values for the tested compounds was calculated using Genedata Screener® software (Genedata) using the following calculation method; Compound % effect=100*[(X−min)/(max−min)], where X represents the normalized value for the compound based on the Min (DMSO) and Max (compound 3-(1,3-benzodioxol-5-yl)-1-(3,5-dimethylpiperidin-1-yl)-3-(2-hydroxy-4,6-dimethoxyphenyl)propan-1-one at 10 μM, described in J. R. Hu et al. ACS Med. Chem. Lett. 2013, 4, 79-84) inhibition controls. Results

[3] = biological target: T1, RORγ ligand binding domain; test: RORγ co-factor recruitment assay (FRET); assay type: biochemical; set-up: made in house; host or cells: E. coli BL21DE3 Star; settings: inhibition of recruitment of SRC-1 peptide (NCOA1_677-700) to hRORγ LBD, HTRF read-out
Procedure, shortened: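 Inverse-agonist TR-FRET measuring biotinylated SRC-1 peptide (NCOA1 677-700, 160 nM in pre-mix) recruitment to E. coli-expressed biotinylated HN-Avi-MBP-TCS-hRORγ LBD (258-518; 100 nM in pre-mix), with Eu-streptavidin and streptavidin-APC, in MOPS pH 7.4 buffer, 1 h at rt. 665/612 nm ratio normalised to vehicle and reference control; IC50 from curve fit.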

IC50 [1] [µM] | IC50 [2] [µM] | IC50 [3] [µM] | Compound
0.794 | 0.251 | 0.158 | CC(=O)N1Cc2cc(S(C)(=O)=O)ccc2C1C(=O)Nc1ccc(C(CC(=O)NC(C)(C)C)(C(F)(F)F)C(F)(F)F)cc1 (stereo not drawn) [Example 43, 2-Acetyl-N-{4-[4-(tert-butylamino)-1,1,1-trifluoro-4-oxo-2-(trifluoromethyl)butan-2-yl]phenyl}-5-(methylsulfonyl)-2,3-dihydro-1H-isoindole-1-carboxamide]
0.316 | 0.1 | 0.126 | CC(=O)N1Cc2cc(S(C)(=O)=O)ccc2C1C(=O)Nc1ccc(C(NCCO)(C(F)(F)F)C(F)(F)F)cc1 (stereo not drawn) [Example 21, 2-Acetyl-N-(4-{1,1,1,3,3,3-hexafluoro-2-[(2-hydroxyethyl)amino]propan-2-yl}phenyl)-5-(methylsulfonyl)-2,3-dihydro-1H-isoindole-1-carboxamide]
